Experimental data taken from patent US7928138B2, “Marine actinomycete taxon for drug and fermentation product discovery” (Regents of the University of California, priority 2000, dated 2011).
Converted amounts (≈) assume the structure as drawn.

Tested on: HCT-116 human colon carcinoma cell line
Assay: Cytotoxicity against human colon carcinoma cell line by MTS assay
Format: cell-based
Settings: pure compound
Description: Assay for the inhibition of growth of colon carcinoma cells and of ovarian cancer cells in vitro. The cytotoxicity of extracts from cells or culture media were assessed in vitro against the human colon carcinoma cell line HCT116 and the human ovarian carcinoma cell line A2780 by MTS assay. Cells were plated at 4,000 cells per well in 96 well microliter plates and, after 24 hours, the extract (dissolved in DMSO or other appropriate solvent) was added and serially diluted. The cells were incubated with the compound at 37° C. for 72 hours, then the tetrazolium dye MTS was added to a final concentration of 333 μg/ml and the electron coupling agent phenazine methosulfate was added to a final concentration of 25 μM. Once reduced, MTS is converted into a […] blue crystal formazan and that was read at an absorbance at 490 nm with a microplate reader. As dead cells are unable to reduce MTS, the amount of formazan is correlated to the number of viable cells. The IC50, the drug concentration required to inhibit proliferation of 50% of the cells, was used as a measure of efficacy.

C[C@@]12OC(=O)[C@]1([C@@H](O)[C@@H]1C=CCCC1)NC(=O)[C@@H]2CCCl [salinosporamide A]
IC50 against the HCT-116 human colon carcinoma cell line: 10 ng/mL (≈ 0.0319 µM)
